Data taken from publication PMC9503459, “Antifungal Activity, Structural Stability, and Immunomodulatory Effects on Human Immune Cells of Defensin from the Lentil Lens culinaris” (Membranes, 2022).
No end group written: not given here.

Key:
CD4+ T-helper cells = assay: Cytokine response by multiplex xMAP, CD4+ T-helper cells; format: cell-based, human; conditions: 2 µM, 24 h
Method: Colorectal adenocarcinoma Caco-2 cell line (ATCC HTB-37) was cultured in complete DMEM/F12 (1:1) medium containing 10% fetal bovine serum (FBS, Gibco) and 1X antibiotic-antimycotic solution (1XAAS, Invitrogen, Waltham, MA, USA). The acute monocytic leukemia THP-1 line (ATCC TIB-202) was cultured in complete RPMI-1640 medium, containing 10% FBS, 1XAAS, and […]. THP-1 cells were differentiated into pro-inflammatory macrophages (Mφ1) with phorbol 12-myristate 13-acetate (Sigma-Aldrich) for 24 h and subsequently polarized with lipopolysaccharide from E. coli (Sigma-Aldrich) and rhIFN-γ (Sigma-Aldrich) for another 48 h according to previously reported protocol. All cells were cultured in a humidified CO2 incubator (5% CO2, 37 °C). Primary peripheral blood mononuclear cells (PBMCs) collected from a healthy donor were purchased from American Type Culture Collection (ATCC PCS-800-011). CD4^+ T-helper and CD8^+ T cytotoxic cells were isolated from PBMCs by magnetic separation with mouse anti-human CD4-PE (clone 13B8.2, Beckman Coulter Diagnostics, Pasadena, CA, USA) and CD8-PE (clone REA734, Miltenyi Biotec, Bergisch Gladbach, Germany), Anti-PE MicroBeads (Miltenyi Biotec), and LS Separation Columns (Miltenyi Biotec). Isolated CD4^+ and CD8^+ cells were expanded separately with Dynabeads™ Human T-Expander CD3/CD28 (Gibco, Waltham, MA, USA) in RPMI-1640 supplemented with 10% FBS, 1XAAS and 100 U/mL rh-IL-2 (Gibco). Regulatory CD4^+ FoxP3^+ T cells (Tregs) were isolated from PBMCs by magnetic separation with CD4^+CD25^+ Regulatory T Cell Isolation Kit, human (Miltenyi Biotec). Primary CD14^+ blood monocytes were isolated from PBMCs by adherence according to standard technique. Monocyte-derived mature dendritic cells (moDCs) were obtained from CD14^+ blood monocytes according to the previously reported protocol. Briefly, blood monocytes were incubated in complete RPMI-1640 medium, containing 10% FBS, 1XAAS, 800 U/mL rhGM-CSF (Sci-Store, Russia, Moscow) and 500 U/mL rhIL-4 (Sci-Store) for 3 days. Fresh complete RPMI-1640 medium with rhGM-CSF and rhIL-4 was added to the culture on day 3. On day 5, fresh complete RPMI-1640 containing 100 U/mL rhTNF-α (Sigma) as well as 800 U/mL rhGM-CSF and 500 U/mL rhIL-4 was added and the culture was incubated for another 4 days until full maturation.
Caco-2 cells were seeded into the wells of a 48-well plate, coated with 0.1% bovine collagen (Sigma-Aldrich) for 24 h, 3 weeks before the experiment with complete DMEM/F12 (1:1) medium renewal every 2–3 days. Monocytes, moDCs, CD4^+ T-helper and CD8^+ T cytotoxic cells, Mφ1, and Regulatory CD4^+ FoxP3^+ T cells were seeded into the wells of 48-well plates in the complete RPMI-1640 medium supplemented with 10% Human AB serum (HABS, Capricorn Scientific, Ebsdorfergrund, Germany) and 1XAAS 24 h prior to the experiment; medium in Caco-2-containing wells was also replaced with the same medium. After 24 h, half of the medium in each well was replaced by fresh complete RPMI-1640 medium with 10% HABS, supplemented with 4 µM of Lc-def for the sample wells or fresh medium alone for the control wells. Cell cultures were kept in CO2-incubator (5% CO2, 37 °C) for another 24 h. Culture supernatants were collected 24 h later and stored at −70 °C degrees less than one month prior to the analytes assessment. […]

[1] = tested on: human red blood cells (hRBC); assay: Hemolytic assay; format: cell-based; conditions: 100 μM, 4% hRBC in PBS pH 7.2, 1.5 h, 37 °C, A405
Method: Hemolytic activity of Lc-def was studied using 96-well microplates. Fresh human red blood cells (hRBC) were washed three times with ice-cold PBS, pH 7.2. Serial two-fold dilutions of Lc-def and membrane-active peptide melittin from the venom of honeybees as positive control (final concentrations from 0.1 to 100 μM) were then added to hRBC in PBS (final concentration of 4% (v/v)). The suspension was incubated for 1.5 h at 37 °C. After, intact hRBC sedimentation aliquots of the supernatants containing released hemoglobin were transferred to 96-well microplates, and the absorbance at 405 nm was measured. hRBC in PBS or 0.1% Triton X-100 were employed as negative (control0) and positive (control100) controls, respectively. The percentage of hemolysis was calculated as: hemolysis(%) = ((Asample − Acontrol0)/(Acontrol100 − Acontrol0)) × 100%. Experiment was carried out twice in triplicate using the same blood.

[2] = tested on: Gram-positive or Gram-negative bacteria; conditions: cited from earlier work

Which EGF (CD4+ T-helper cells) does the source give for “Lc-def: defensin from lentil Lens culinaris seeds (UniProt:B3F051), recombinant, overexpressed in Escherichia coli (KTCENLSDSFKGPCIPDGNCNKHCKEKEHLLSGRCRDDFRCWCTRNC; disulfide (positions not given here); ends not checked; also: disulfide bonds present, pairing not given here; UniProt B3F051 28-74, looked up)” here?
Its EGF is <1.95↓ pg/ml.

And the Eotaxin (CD4+ T-helper cells)?
Its Eotaxin is <3.23↓ pg/ml.

And the FGF-2 (CD4+ T-helper cells)?
Its FGF-2 is 0 pg/mL.

What about the FLT-3L (CD4+ T-helper cells) of the same substance?
The FLT-3L was <0.45↓ pg/ml.

And the Fractalkine (CD4+ T-helper cells)?
The Fractalkine was <23.19↓ pg/ml.

And the G-CSF (CD4+ T-helper cells)?
The G-CSF was <2.57↓ pg/ml.

What about the GM-CSF (CD4+ T-helper cells) of the same substance?
Its GM-CSF is <1.36↓ pg/ml.

And the GROa (CD4+ T-helper cells)?
The GROa was <0.67↓ pg/ml.

What about the IFNa2 (CD4+ T-helper cells) of the same substance?
The IFNa2 was <4.43↓ pg/ml.

And the IFNg (CD4+ T-helper cells)?
Its IFNg is <1.99↓ pg/ml.

And the IL-1RA (CD4+ T-helper cells)?
Its IL-1RA is <0.83↓ pg/ml.

What about the IL-1a (CD4+ T-helper cells) of the same substance?
The IL-1a was 8.24 pg/mL.

What about the IL-1b (CD4+ T-helper cells) of the same substance?
Its IL-1b is <18.72↓ pg/ml.

And the IL-2 (CD4+ T-helper cells)?
Its IL-2 is <0.31↓ pg/ml.

What about the IL-3 (CD4+ T-helper cells) of the same substance?
Its IL-3 is <0.48↓ pg/ml.

And the IL-4 (CD4+ T-helper cells)?
The IL-4 was <0.31↓ pg/ml.

What about the IL-5 (CD4+ T-helper cells) of the same substance?
Its IL-5 is 0.97 pg/mL.

And the IL-6 (CD4+ T-helper cells)?
Its IL-6 is <0.30↓ pg/ml.

And the IL-7 (CD4+ T-helper cells)?
The IL-7 was <0.33↓ pg/ml.

What about the IL-8 (CD4+ T-helper cells) of the same substance?
The IL-8 was <0.49↓ pg/ml.

And the IL-9 (CD4+ T-helper cells)?
Its IL-9 is <1.05↓ pg/ml.

What about the IL-10 (CD4+ T-helper cells) of the same substance?
Its IL-10 is <0.68↓ pg/ml.

What about the “IL-12 (p40)” value (CD4+ T-helper cells) of the same substance?
Its value is <3.02↓ pg/ml.

And the “IL-12 (p70)” value (CD4+ T-helper cells)?
The value was <1.48↓ pg/ml.

And the IL-13 (CD4+ T-helper cells)?
Its IL-13 is <5.00↓ pg/ml.

What about the IL-15 (CD4+ T-helper cells) of the same substance?
The IL-15 was <1.45↓ pg/ml.

And the IL-17A (CD4+ T-helper cells)?
The IL-17A was <1.55↓ pg/ml.

And the IL-17E/IL-25 (CD4+ T-helper cells)?
The IL-17E/IL-25 was <20.59↓ pg/ml.

What about the IL-17F (CD4+ T-helper cells) of the same substance?
Its IL-17F is <16.96↓ pg/ml.

And the IL-18 (CD4+ T-helper cells)?
Its IL-18 is <0.35↓ pg/ml.

What about the IL-22 (CD4+ T-helper cells) of the same substance?
The IL-22 was <8.31↓ pg/ml.

And the IL-27 (CD4+ T-helper cells)?
The IL-27 was <8.55↓ pg/ml.

What about the IP-10 (CD4+ T-helper cells) of the same substance?
Its IP-10 is <1.56↓ pg/ml.

And the M-GSF (CD4+ T-helper cells)?
The M-GSF was <23.75↓ pg/ml.

And the MCP-1 (CD4+ T-helper cells)?
The MCP-1 was <1.52↓ pg/ml.

What about the MCP-3 (CD4+ T-helper cells) of the same substance?
The MCP-3 was <3.95↓ pg/ml.

What about the MDC (CD4+ T-helper cells) of the same substance?
The MDC was <0.35↓ pg/ml.

What about the MIG (CD4+ T-helper cells) of the same substance?
The MIG was <3.43↓ pg/ml.

And the MIP-1a (CD4+ T-helper cells)?
Its MIP-1a is 7.47 pg/mL.

What about the MIP-1b (CD4+ T-helper cells) of the same substance?
Its MIP-1b is 3.99 pg/mL.

What about the PDGF-AA (CD4+ T-helper cells) of the same substance?
Its PDGF-AA is <7.38↓ pg/ml.

What about the PDGF-AB/BB (CD4+ T-helper cells) of the same substance?
The PDGF-AB/BB was <9.75↓ pg/ml.

What about the RANTES (CD4+ T-helper cells) of the same substance?
Its RANTES is 236.88 pg/mL.

What about the TGF-a (CD4+ T-helper cells) of the same substance?
Its TGF-a is <0.66↓ pg/ml.

What about the TNFa (CD4+ T-helper cells) of the same substance?
Its TNFa is <3.91↓ pg/ml.

And the TNFb (CD4+ T-helper cells)?
Its TNFb is <0.73↓ pg/ml.

And the VEGFa (CD4+ T-helper cells)?
Its VEGFa is <1.27↓ pg/ml.

What about the “effects on cytokine production” value (CD4+ T-helper cells) of the same substance?
Its value is “No effects”.

And the sCD40L (CD4+ T-helper cells)?
The sCD40L was <6.66↓ pg/ml.

And the hemolysis of erythrocytes [1]?
The hemolysis of erythrocytes was “did not cause hemolysis”.

And the “effect on growth of bacteria” value [2]?
The value was “did not affect the growth”.
